Results from patent publication US7396837B2, “Antitumoral analogs of lamellarins” (Pharma Mar, S.A.U., priority 2002, dated 2008).
Read-outs that look alike come from different tables or passages of the source.

Experiments:
Type in all cases: cell-based
SK-BR-3 = experiment: SRB colorimetric cell growth inhibition assay, SK-BR-3; conditions: for GI50: GI=growth inhibition, read-out: GI50 SK-BR-3; for CC50: cell killing (cytotoxic effect), read-out: LC50 SK-BR-3
Method in brief: (§1)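 In this cytotoxicity screen, compound stays in contact with the cultured human cancer cells without washout; sulforhodamine B binding gives the measure of cell number, and endpoints separate growth inhibition from cytostasis (TGI) and killing (LC).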

LNCaP = experiment: SRB colorimetric cell growth inhibition assay, LNCaP; conditions: LN-caP; for GI50: GI=growth inhibition, read-out: GI50 LN-caP; for CC50: cell killing (cytotoxic effect), read-out: LC50 LN-caP
Method in brief: as §1

HT-29 = experiment: SRB colorimetric cell growth inhibition assay, HT-29; conditions: for GI50: GI=growth inhibition, read-out: GI50 HT-29; for CC50: cell killing (cytotoxic effect), read-out: LC50 HT-29; for IC (TGI): read-out: TGI HT-29
Method in brief: as §1

PANC-1 = experiment: SRB colorimetric cell growth inhibition assay, PANC-1; conditions: for CC50: cell killing (cytotoxic effect), read-out: LC50 PANC-1; for IC (TGI): read-out: TGI PANC-1; for GI50: GI=growth inhibition, read-out: GI50 PANC-1
Method in brief: as §1

LoVo = experiment: SRB colorimetric cell growth inhibition assay, LoVo; conditions: for CC50: cell killing (cytotoxic effect), read-out: LC50 LOVO; for IC (TGI): read-out: TGI LOVO; for GI50: GI=growth inhibition, read-out: GI50 LOVO
Method in brief: as §1

HeLa = experiment: SRB colorimetric cell growth inhibition assay, HeLa; conditions: for GI50: GI=growth inhibition, read-out: GI50 HELA; for CC50: cell killing (cytotoxic effect), read-out: LC50 HELA; for IC (TGI): read-out: TGI HELA
Method in brief: as §1

K-562 = experiment: SRB colorimetric cell growth inhibition assay, K-562; conditions: for CC50: cell killing (cytotoxic effect), read-out: LC50 K-562; for IC (TGI): read-out: TGI K-562; for GI50: GI=growth inhibition, read-out: GI50 K-562
Method in brief: as §1

A-549 = experiment: SRB colorimetric cell growth inhibition assay, A-549; conditions: for GI50: GI=growth inhibition, read-out: GI50 A-549; for CC50: cell killing (cytotoxic effect), read-out: LC50 A-549; for IC (TGI): read-out: TGI A-549
Method in brief: as §1

IGROV = experiment: SRB colorimetric cell growth inhibition assay, IGROV; conditions: IGROV; for GI50: GI=growth inhibition, read-out: GI50 IGROV; for CC50: cell killing (cytotoxic effect), read-out: LC50 IGROV
Method in brief: as §1

LoVo-Dox = experiment: SRB colorimetric cell growth inhibition assay, LoVo-Dox (MDR); conditions: LOVO-DOX; for CC50: cell killing (cytotoxic effect), read-out: LC50 LOVO-DOX; for IC (TGI): read-out: TGI LOVO-DOX; for GI50: GI=growth inhibition, read-out: GI50 LOVO-DOX
Method in brief: as §1

SK-MEL-28 = experiment: SRB colorimetric cell growth inhibition assay, SK-MEL-28; conditions: for GI50: GI=growth inhibition, read-out: GI50 MEL-28; for CC50: cell killing (cytotoxic effect), read-out: LC50 MEL-28
Method in brief: as §1

IGROV-ET = experiment: SRB colorimetric cell growth inhibition assay, IGROV-ET (ET-743 resistant); conditions: IGROV-ET; for GI50: GI=growth inhibition, read-out: GI50 IGROV-ET; for CC50: cell killing (cytotoxic effect), read-out: LC50 IGROV-ET
Method in brief: as §1

DU-145 = experiment: SRB colorimetric cell growth inhibition assay, DU-145; conditions: for GI50: GI=growth inhibition, read-out: GI50 DU-145; for CC50: cell killing (cytotoxic effect), read-out: LC50 DU-145
Method in brief: as §1

HeLa-APL = experiment: SRB colorimetric cell growth inhibition assay, HeLa-APL (aplidine resistant); conditions: HELA-APL; for GI50: GI=growth inhibition, read-out: GI50 HELA-APL; for CC50: cell killing (cytotoxic effect), read-out: LC50 HELA-APL; for IC (TGI): read-out: TGI HELA-APL
Method in brief: as §1

[1] = SK-BR-3, total growth inhibition (cytostatic effect)
[2] = total growth inhibition (cytostatic effect)
[3] = Homo sapiens, HT-29, HT-29, total growth inhibition (cytostatic effect)
[4] = Homo sapiens, PANC-1, PANC-1, total growth inhibition (cytostatic effect)
[5] = Homo sapiens, LoVo, total growth inhibition (cytostatic effect)
[6] = Homo sapiens, HeLa, total growth inhibition (cytostatic effect)
[7] = Homo sapiens, K562, K-562, total growth inhibition (cytostatic effect)
[8] = Homo sapiens, A549, A-549, total growth inhibition (cytostatic effect)
[9] = Homo sapiens, total growth inhibition (cytostatic effect)
[10] = MEL-28, total growth inhibition (cytostatic effect)
[11] = DU-145, total growth inhibition (cytostatic effect)
[12] = Homo sapiens, SK-MEL-28, MEL-28

COc1cc(-c2c3c4cc(OC)c(OC(=O)[C@@H](N)Cc5ccccc5)cc4oc(=O)c3n3ccc4c(OC(=O)[C@@H](N)Cc5ccccc5)c(OC)c(OC)cc4c23)ccc1OC(=O)[C@@H](N)Cc1ccccc1 [Compound 207]
GI50 (SK-BR-3; SK-BR-3): 202 nM
CC50 (SK-BR-3; SK-BR-3): 4210 nM
TGI SK-BR-3 (SK-BR-3; [1]): 1.07E−06 Molar
GI50 (LNCaP): 127 nM
CC50 (LNCaP): 4100 nM
TGI LN-caP (LNCaP; [2]): 9.44E−07 Molar
GI50 (HT-29; HT-29): 3770 nM
CC50 (HT-29; Homo sapiens, HT-29, HT-29): 9260 nM
IC (TGI) (HT-29; [3]): 9260 nM
CC50 (PANC-1; Homo sapiens, PANC-1, PANC-1): 9260 nM
IC (TGI) (PANC-1; [4]): 2370 nM
GI50 (PANC-1; PANC-1): 127 nM
CC50 (LoVo; Homo sapiens, LoVo): 868 nM
IC (TGI) (LoVo; [5]): 405 nM
GI50 (LoVo; LOVO): 189 nM
GI50 (HeLa; Homo sapiens, HeLa): 42.2 nM
CC50 (HeLa; Homo sapiens, HeLa): 3340 nM
IC (TGI) (HeLa; [6]): 1230 nM
CC50 (K-562; Homo sapiens, K562, K-562): 9260 nM
IC (TGI) (K-562; [7]): 3060 nM
GI50 (K-562; K-562): 92 nM
GI50 (A-549; A-549): 91.4 nM
CC50 (A-549; Homo sapiens, A549, A-549): 3550 nM
IC (TGI) (A-549; [8]): 1020 nM
GI50 (IGROV): 76.3 nM
CC50 (IGROV): 1550 nM
TGI IGROV (IGROV; [2]): 3.18E−07 Molar
CC50 (LoVo-Dox; Homo sapiens): 9260 nM
IC (TGI) (LoVo-Dox; [9]): 2850 nM
GI50 (LoVo-Dox): 316 nM
GI50 (SK-MEL-28; MEL-28): 44.4 nM
CC50 (SK-MEL-28; MEL-28): 4600 nM
TGI MEL-28 (SK-MEL-28; [10]): 2.45E−07 Molar
GI50 (IGROV-ET): 43.6 nM
CC50 (IGROV-ET): 2380 nM
TGI IGROV-ET (IGROV-ET; [2]): 2.86E−07 Molar
GI50 (DU-145; DU-145): 23 nM
CC50 (DU-145; DU-145): 74.8 nM
TGI DU-145 (DU-145; [11]): 4.16E−08 Molar
GI50 (HeLa-APL; Homo sapiens): 77.9 nM
CC50 (HeLa-APL; Homo sapiens): 3710 nM
IC (TGI) (HeLa-APL; [9]): 1500 nM

COc1cc2c(cc1O)oc(=O)c1c2c(-c2cccc([N+](=O)[O-])c2)c2c3cc(OC)c(O)cc3ccn21 [Compound 221]
GI50 (SK-BR-3; Homo sapiens, SK-BR-3, SK-BR-3): 1530 nM
CC50 (SK-BR-3; Homo sapiens, SK-BR-3, SK-BR-3): 20100 nM
IC (TGI) (SK-BR-3; Homo sapiens, SK-BR-3, SK-BR-3, total growth inhibition (cytostatic effect), read-out: TGI SK-BR-3): 12900 nM
GI50 (LNCaP; Homo sapiens, LNCaP): 72.2 nM
CC50 (LNCaP; Homo sapiens, LNCaP): 20100 nM
IC (TGI) (LNCaP; Homo sapiens, LNCaP, total growth inhibition (cytostatic effect), read-out: TGI LN-caP): 5020 nM
GI50 (HT-29; Homo sapiens, HT-29, HT-29): 20100 nM
CC50 (HT-29; Homo sapiens, HT-29, HT-29): 20100 nM
IC (TGI) (HT-29; [3]): 20100 nM
GI50 (PANC-1; Homo sapiens, PANC-1, PANC-1): 78.6 nM
CC50 (PANC-1; Homo sapiens, PANC-1, PANC-1): 20100 nM
IC (TGI) (PANC-1; [4]): 20100 nM
GI50 (LoVo; Homo sapiens, LoVo): 2410 nM
CC50 (LoVo; Homo sapiens, LoVo): 15900 nM
IC (TGI) (LoVo; [5]): 6200 nM
GI50 (HeLa; Homo sapiens, HeLa): 56.4 nM
CC50 (HeLa; Homo sapiens, HeLa): 20100 nM
IC (TGI) (HeLa; [6]): 20100 nM
GI50 (K-562; Homo sapiens, K562, K-562): 88.3 nM
CC50 (K-562; Homo sapiens, K562, K-562): 20100 nM
IC (TGI) (K-562; [7]): 20100 nM
GI50 (A-549; Homo sapiens, A549, A-549): 80.2 nM
CC50 (A-549; Homo sapiens, A549, A-549): 20100 nM
IC (TGI) (A-549; [8]): 20100 nM
GI50 (IGROV; Homo sapiens): 81.9 nM
CC50 (IGROV; Homo sapiens): 20100 nM
IC (TGI) (IGROV; Homo sapiens, total growth inhibition (cytostatic effect), read-out: TGI IGROV): 20100 nM
GI50 (LoVo-Dox; Homo sapiens): 2830 nM
CC50 (LoVo-Dox; Homo sapiens): 20100 nM
IC (TGI) (LoVo-Dox; [9]): 14200 nM
GI50 (SK-MEL-28; [12]): 106 nM
CC50 (SK-MEL-28; [12]): 20100 nM
IC (TGI) (SK-MEL-28; Homo sapiens, SK-MEL-28, MEL-28, total growth inhibition (cytostatic effect), read-out: TGI MEL-28): 20100 nM
GI50 (IGROV-ET; Homo sapiens): 64.8 nM
CC50 (IGROV-ET; Homo sapiens): 20100 nM
IC (TGI) (IGROV-ET; Homo sapiens, total growth inhibition (cytostatic effect), read-out: TGI IGROV-ET): 20100 nM
GI50 (DU-145; Homo sapiens, DU-145, DU-145): 43.1 nM
CC50 (DU-145; Homo sapiens, DU-145, DU-145): 20100 nM
IC (TGI) (DU-145; Homo sapiens, DU-145, DU-145, total growth inhibition (cytostatic effect), read-out: TGI DU-145): 257 nM
GI50 (HeLa-APL; Homo sapiens): 79.6 nM
CC50 (HeLa-APL; Homo sapiens): 20100 nM
IC (TGI) (HeLa-APL; [9]): 20100 nM

COc1cc2c(cc1O)oc(=O)c1c2c(-c2ccc(OC(=O)[C@H](C)N)c(OC)c2)c2c3cc(OC)c(O)cc3ccn21.Cl [Compound 238]
GI50 (SK-BR-3; SK-BR-3): 153 nM
CC50 (SK-BR-3; SK-BR-3): 16500 nM
TGI SK-BR-3 (SK-BR-3; [1]): 1.61E−06 Molar
GI50 (LNCaP): 2130 nM
CC50 (LNCaP): 16500 nM
TGI LN-caP (LNCaP; [2]): 1.65E−05 Molar
GI50 (HT-29; HT-29): 2650 nM
CC50 (HT-29; HT-29): 16500 nM
TGI HT-29 (HT-29; HT-29, total growth inhibition (cytostatic effect)): 1.06E−05 Molar
GI50 (PANC-1; PANC-1): 25.4 nM
CC50 (PANC-1; PANC-1): 1610 nM
TGI PANC-1 (PANC-1; PANC-1, total growth inhibition (cytostatic effect)): 2.50E−07 Molar
GI50 (LoVo; LOVO): 57 nM
CC50 (LoVo; LOVO): 1290 nM
TGI LOVO (LoVo; LOVO, total growth inhibition (cytostatic effect)): 2.26E−07 Molar
GI50 (HeLa; HELA): 52.2 nM
CC50 (HeLa; HELA): 1240 nM
TGI HELA (HeLa; HELA, total growth inhibition (cytostatic effect)): 1.31E−07 Molar
GI50 (K-562; K-562): 43.3 nM
CC50 (K-562; K-562): 1200 nM
TGI K-562 (K-562; K-562, total growth inhibition (cytostatic effect)): 2.47E−07 Molar
GI50 (A-549; A-549): 45.8 nM
CC50 (A-549; A-549): 16500 nM
TGI A-549 (A-549; A-549, total growth inhibition (cytostatic effect)): 4.38E−07 Molar
GI50 (IGROV): 79.9 nM
CC50 (IGROV): 1260 nM
TGI IGROV (IGROV; [2]): 2.82E−07 Molar
GI50 (LoVo-Dox): 2260 nM
CC50 (LoVo-Dox): 16500 nM
TGI LOVO-DOX (LoVo-Dox; [2]): 8.98E−07 Molar
GI50 (SK-MEL-28; MEL-28): 52.6 nM
CC50 (SK-MEL-28; MEL-28): 12500 nM
TGI MEL-28 (SK-MEL-28; [10]): 3.51E−07 Molar
GI50 (IGROV-ET): 41.3 nM
CC50 (IGROV-ET): 16500 nM
TGI IGROV-ET (IGROV-ET; [2]): 1.44E−07 Molar
GI50 (DU-145; DU-145): 45.8 nM
CC50 (DU-145; DU-145): 16500 nM
TGI DU-145 (DU-145; [11]): 9.65E−08 Molar
GI50 (HeLa-APL): 157 nM
CC50 (HeLa-APL): 1760 nM
TGI HELA-APL (HeLa-APL; [2]): 5.16E−07 Molar
